# Earlier results in US11377636B2, “Endogenous retrovirus transcription as a marker for primate naive pluripotent stem cells” (Max-Delbrück-Centrum für Molekulare Medizin in der …, priority 2014, dated 2022).
# How the values were obtained:
# PKCζ = biological target: T1, PKCζ (Homo sapiens, UniProt Q05513)
# T1 sequence (Q05513 1-592): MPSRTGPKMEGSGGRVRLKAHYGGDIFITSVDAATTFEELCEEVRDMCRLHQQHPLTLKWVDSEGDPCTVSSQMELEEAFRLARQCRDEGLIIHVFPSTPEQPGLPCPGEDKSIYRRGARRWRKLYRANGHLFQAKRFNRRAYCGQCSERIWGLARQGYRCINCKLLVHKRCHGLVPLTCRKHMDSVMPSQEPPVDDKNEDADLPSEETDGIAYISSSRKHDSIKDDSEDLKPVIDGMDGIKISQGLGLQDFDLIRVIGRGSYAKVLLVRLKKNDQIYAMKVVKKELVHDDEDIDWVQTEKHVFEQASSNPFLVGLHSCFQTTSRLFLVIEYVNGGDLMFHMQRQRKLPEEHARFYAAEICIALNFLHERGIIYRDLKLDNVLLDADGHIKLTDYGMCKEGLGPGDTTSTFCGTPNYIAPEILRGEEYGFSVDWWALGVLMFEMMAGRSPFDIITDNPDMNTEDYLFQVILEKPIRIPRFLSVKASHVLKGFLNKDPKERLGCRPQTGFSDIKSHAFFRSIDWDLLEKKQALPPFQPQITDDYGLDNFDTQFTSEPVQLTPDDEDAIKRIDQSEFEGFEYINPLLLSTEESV
# PKCδ = PKCδ (Homo sapiens, UniProt Q05655)
# PKCβ = PKCβ (Homo sapiens, UniProt P05771)
# PKCγ = PKCγ (Homo sapiens, UniProt P05129)
# PKCα = PKCα (Homo sapiens, UniProt P17252)
# PKCμ = biological target: T2, PKCμ (Homo sapiens, UniProt Q15139); conditions: does not effectively inhibit PKCμ
# T2 sequence (Q15139 1-912): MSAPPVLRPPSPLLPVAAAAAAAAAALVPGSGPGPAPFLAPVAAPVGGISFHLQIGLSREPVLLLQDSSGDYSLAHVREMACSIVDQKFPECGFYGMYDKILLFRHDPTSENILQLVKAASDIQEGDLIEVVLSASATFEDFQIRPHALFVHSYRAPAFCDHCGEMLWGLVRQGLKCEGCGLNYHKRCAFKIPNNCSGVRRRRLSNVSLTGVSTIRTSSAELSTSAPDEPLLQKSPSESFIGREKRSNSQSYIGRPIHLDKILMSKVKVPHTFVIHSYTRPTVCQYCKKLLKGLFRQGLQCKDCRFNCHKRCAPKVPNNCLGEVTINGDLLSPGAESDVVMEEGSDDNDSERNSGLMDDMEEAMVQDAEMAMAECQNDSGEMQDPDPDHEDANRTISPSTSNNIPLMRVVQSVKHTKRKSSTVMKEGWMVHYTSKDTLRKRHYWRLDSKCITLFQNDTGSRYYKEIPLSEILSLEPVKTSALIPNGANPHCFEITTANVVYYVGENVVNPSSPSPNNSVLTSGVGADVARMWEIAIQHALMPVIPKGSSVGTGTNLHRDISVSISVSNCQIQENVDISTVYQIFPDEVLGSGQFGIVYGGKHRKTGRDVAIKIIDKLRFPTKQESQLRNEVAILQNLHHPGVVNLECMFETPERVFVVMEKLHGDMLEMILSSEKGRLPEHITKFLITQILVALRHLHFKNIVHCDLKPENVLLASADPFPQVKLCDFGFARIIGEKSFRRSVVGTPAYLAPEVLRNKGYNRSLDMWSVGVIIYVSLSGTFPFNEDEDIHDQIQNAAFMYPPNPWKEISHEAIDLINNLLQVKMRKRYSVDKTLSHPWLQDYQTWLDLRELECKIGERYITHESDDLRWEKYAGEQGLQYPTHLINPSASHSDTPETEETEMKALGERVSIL
# GSK3β = GSK3β (Homo sapiens, UniProt P49841)
# KDR = KDR (Homo sapiens, UniProt P35968)
# Src kinase = Src kinase (Homo sapiens, UniProt P12931)
# Chain of KDR (P35968 20-1356, species assumed): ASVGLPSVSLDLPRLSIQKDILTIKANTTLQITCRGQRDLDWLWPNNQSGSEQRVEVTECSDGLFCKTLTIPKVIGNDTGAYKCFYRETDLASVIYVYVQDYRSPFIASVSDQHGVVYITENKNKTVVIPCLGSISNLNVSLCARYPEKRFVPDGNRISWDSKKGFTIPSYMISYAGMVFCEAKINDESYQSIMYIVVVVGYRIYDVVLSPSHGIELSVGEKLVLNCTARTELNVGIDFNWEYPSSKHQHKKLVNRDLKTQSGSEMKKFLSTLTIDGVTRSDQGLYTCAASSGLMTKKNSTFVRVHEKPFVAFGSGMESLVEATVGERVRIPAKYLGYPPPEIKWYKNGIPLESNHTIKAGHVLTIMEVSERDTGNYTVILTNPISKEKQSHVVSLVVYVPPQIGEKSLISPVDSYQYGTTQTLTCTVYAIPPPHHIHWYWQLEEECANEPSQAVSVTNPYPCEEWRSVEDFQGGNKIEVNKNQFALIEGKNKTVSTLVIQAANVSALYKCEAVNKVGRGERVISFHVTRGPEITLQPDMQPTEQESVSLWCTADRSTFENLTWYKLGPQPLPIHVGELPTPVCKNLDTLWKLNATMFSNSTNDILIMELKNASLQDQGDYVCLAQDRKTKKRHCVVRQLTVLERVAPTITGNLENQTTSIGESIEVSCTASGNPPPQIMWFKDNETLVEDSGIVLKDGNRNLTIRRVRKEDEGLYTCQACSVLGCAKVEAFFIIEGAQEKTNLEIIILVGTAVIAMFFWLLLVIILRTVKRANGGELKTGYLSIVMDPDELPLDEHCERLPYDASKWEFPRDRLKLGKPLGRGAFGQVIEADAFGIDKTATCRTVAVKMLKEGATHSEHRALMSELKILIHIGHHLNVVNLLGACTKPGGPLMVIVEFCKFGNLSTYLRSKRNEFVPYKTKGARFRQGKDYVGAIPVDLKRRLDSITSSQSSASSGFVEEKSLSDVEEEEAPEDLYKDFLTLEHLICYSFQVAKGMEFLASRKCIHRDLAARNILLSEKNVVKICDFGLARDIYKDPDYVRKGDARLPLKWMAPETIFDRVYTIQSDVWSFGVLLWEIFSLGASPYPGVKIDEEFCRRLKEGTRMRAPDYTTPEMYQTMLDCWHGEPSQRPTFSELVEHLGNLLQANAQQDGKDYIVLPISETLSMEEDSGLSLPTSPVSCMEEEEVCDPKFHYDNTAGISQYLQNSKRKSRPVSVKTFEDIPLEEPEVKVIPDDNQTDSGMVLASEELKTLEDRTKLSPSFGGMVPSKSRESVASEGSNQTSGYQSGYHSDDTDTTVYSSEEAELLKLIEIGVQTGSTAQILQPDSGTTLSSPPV
# Chain of PKCβ (P05771 whole entry, species assumed): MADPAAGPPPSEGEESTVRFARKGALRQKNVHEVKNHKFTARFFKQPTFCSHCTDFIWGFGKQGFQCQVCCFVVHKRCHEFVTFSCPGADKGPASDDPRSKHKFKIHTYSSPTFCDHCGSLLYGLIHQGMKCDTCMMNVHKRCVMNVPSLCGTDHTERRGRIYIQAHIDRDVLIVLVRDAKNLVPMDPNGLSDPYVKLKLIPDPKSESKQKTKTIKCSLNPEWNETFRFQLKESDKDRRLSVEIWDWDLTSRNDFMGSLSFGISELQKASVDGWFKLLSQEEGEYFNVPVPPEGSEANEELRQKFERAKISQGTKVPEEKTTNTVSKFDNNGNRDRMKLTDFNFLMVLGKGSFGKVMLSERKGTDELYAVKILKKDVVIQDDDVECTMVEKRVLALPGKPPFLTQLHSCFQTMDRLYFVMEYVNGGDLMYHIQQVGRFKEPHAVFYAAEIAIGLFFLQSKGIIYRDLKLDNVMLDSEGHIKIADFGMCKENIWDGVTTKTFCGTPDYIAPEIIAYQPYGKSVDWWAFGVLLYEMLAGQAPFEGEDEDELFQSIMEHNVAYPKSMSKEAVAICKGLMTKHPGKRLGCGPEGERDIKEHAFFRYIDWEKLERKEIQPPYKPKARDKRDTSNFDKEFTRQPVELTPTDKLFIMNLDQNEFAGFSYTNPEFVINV
# Chain of GSK3β (P49841 whole entry, species assumed): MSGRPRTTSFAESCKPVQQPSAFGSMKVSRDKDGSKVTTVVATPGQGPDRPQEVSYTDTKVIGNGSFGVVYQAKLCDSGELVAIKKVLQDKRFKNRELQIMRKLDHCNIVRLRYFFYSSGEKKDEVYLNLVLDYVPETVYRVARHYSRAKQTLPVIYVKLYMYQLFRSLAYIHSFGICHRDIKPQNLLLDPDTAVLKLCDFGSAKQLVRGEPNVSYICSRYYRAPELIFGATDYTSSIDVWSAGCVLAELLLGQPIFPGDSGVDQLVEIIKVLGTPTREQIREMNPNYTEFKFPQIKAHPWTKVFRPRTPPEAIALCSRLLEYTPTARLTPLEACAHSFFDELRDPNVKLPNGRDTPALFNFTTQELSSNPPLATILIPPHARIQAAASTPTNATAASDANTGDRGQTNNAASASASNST
# Chain of PKCδ (Q05655 whole entry): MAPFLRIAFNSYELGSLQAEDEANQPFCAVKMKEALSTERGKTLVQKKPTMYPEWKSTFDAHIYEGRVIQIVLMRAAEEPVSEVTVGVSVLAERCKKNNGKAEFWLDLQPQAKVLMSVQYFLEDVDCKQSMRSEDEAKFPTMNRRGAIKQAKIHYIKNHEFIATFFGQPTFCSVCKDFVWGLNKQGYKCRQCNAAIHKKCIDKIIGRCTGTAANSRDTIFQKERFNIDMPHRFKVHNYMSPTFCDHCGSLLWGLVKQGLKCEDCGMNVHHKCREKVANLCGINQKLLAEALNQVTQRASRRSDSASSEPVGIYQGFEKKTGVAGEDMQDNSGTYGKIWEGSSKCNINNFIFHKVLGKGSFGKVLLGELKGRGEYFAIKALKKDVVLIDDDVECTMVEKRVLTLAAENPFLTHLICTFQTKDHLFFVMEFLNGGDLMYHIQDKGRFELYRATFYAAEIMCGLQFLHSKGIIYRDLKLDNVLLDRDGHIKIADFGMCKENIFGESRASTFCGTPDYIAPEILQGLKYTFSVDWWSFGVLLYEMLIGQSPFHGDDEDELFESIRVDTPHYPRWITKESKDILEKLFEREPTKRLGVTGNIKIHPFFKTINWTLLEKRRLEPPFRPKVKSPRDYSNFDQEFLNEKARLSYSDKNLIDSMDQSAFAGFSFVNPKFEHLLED
compound,measurement,setting,value
CN1C(=O)[C@@]23C[C@]4([C@]56C[C@@]78SS[C@@](CO)(C(=O)N7[C@H]5Nc5ccccc56)N(C)C8=O)c5ccccc5N[C@@H]4N2C(=O)[C@]1(CO)SS3 [Chaetocin],cytotoxicity against HeLa cells IC50,HeLa cells,0.05 µg/mL
COc1ccc2c(c1)c(C1=C(c3c[nH]c4ccccc34)C(=O)NC1=O)cn2CCCN(C)C [Go6983],IC50,PKCζ,60 nM
same,IC50,PKCδ,10 nM
same,IC50,PKCβ,7 nM
same,IC50,PKCγ,6 nM
same,IC50,PKCα,7 nM
same,IC50,PKCμ,20000 nM
Cc1[nH]c2ccccc2c1C1=C(NCCc2ccc(F)cc2)C(=O)N(C)C1=O [IM-12],IC50,GSK3β,53 nM
WH-4-023,inhibition on KDR,KDR,little inhibition
same,IC50,Src kinase,6 nM
